Assay results reported in ChEMBL document CHEMBL5113555, “Potent PROTACs Targeting EGFR Mutants in Drug Discovery” (ACS Med Chem Lett, 2022).

Biological target: Protein cereblon/Epidermal growth factor receptor (Homo sapiens, UniProt P00533+Q96SW2)
Test: Protac activity at E3 ubiquitin ligase/EGFR Del19/[…]/C797S mutant assessed as E3 ubiquitin ligase mediated EGFR degradation in human NCI-H1975 cells expressing Del19/[…]/C797S mutant in clone 28 after 16 hrs by HTRF assay
Format: cell-based

Protein cereblon/Epidermal growth factor receptor, sequence (P00533 whole entry, looked up, stated change not applied): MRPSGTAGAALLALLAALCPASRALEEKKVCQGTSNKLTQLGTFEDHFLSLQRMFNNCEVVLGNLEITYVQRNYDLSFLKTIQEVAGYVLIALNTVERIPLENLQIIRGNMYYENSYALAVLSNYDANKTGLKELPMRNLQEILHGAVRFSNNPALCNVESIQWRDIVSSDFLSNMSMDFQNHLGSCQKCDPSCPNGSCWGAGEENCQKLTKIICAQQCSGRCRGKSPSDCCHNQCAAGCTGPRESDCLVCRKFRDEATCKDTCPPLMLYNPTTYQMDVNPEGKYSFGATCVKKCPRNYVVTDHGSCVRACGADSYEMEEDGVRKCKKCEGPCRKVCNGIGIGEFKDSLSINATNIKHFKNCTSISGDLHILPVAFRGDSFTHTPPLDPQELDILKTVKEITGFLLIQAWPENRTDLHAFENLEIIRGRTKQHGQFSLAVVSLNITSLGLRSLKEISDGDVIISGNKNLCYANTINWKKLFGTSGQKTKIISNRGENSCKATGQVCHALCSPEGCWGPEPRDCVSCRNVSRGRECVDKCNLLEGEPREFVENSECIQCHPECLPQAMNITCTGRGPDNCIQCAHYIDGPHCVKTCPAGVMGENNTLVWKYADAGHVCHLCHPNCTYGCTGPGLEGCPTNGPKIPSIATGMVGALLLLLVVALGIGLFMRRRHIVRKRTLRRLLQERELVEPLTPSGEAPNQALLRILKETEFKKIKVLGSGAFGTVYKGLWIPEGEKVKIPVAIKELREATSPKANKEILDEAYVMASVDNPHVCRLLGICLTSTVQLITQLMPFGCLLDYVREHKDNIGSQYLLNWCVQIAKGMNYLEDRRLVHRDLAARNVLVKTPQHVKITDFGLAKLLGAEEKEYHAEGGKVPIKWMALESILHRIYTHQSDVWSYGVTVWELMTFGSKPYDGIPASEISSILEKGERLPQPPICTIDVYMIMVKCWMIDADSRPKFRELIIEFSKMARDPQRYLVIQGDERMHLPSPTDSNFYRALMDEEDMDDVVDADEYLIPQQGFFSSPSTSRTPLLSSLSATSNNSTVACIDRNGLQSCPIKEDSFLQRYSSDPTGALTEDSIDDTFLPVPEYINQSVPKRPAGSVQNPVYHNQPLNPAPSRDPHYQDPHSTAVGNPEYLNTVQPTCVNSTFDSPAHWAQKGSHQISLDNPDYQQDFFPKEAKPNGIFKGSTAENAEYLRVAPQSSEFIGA
Protein cereblon/Epidermal growth factor receptor, sequence (Q96SW2 whole entry, looked up, stated change not applied): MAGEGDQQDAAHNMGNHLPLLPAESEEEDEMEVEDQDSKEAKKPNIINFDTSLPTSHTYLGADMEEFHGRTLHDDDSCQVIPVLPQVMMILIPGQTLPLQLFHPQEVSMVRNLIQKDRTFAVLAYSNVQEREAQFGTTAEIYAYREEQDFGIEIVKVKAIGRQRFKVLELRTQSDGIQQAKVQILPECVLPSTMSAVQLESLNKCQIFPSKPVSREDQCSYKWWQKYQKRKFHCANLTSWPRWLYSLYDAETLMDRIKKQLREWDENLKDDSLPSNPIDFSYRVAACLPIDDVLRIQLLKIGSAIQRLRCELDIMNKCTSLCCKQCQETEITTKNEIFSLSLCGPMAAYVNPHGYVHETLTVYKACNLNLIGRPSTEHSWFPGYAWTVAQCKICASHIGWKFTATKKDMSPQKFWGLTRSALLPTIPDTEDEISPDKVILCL

In order of rising DC50:
1. CCOc1cc(N2CCC(N3CCN(CCc4cccc5c4n(C)c(=O)n5C4CCC(=O)NC4=O)CC3)CC2)c(CC)cc1Nc1ncc(Br)c(Nc2cnc3cc(F)ccc3c2P(C)(C)=O)n1 (centres undefined)  400 nM
2. CCOc1cc(N2CCC(N3CCN(CCc4cc(F)c(F)c5c4oc(=O)n5C4CCC(=O)NC4=O)CC3)CC2)c(CC)cc1Nc1ncc(Br)c(Nc2cnc3ccccc3c2P(C)(C)=O)n1 (centres undefined)  600 nM
3. CCc1cc(Nc2ncc(Br)c(Nc3cnc4ccccc4c3P(C)(C)=O)n2)c(OC)cc1N1CCC(N2CCN(CCc3cccc4c3n(C3CC3)c(=O)n4C3CCC(=O)NC3=O)CC2)CC1 (centres undefined)  700 nM
4. CCc1cc(Nc2ncc(Br)c(Nc3cnc4ccccc4c3P(C)(C)=O)n2)c(OC)cc1N1CCC(N2CCN(CCc3cccc4c3n(CC)c(=O)n4C3CCC(=O)NC3=O)CC2)CC1 (centres undefined)  900 nM
5. CCc1cc(Nc2ncc(Br)c(Nc3cnc4ccccc4c3P(C)(C)=O)n2)c(OC)cc1N1CCC(N2CCN(CCc3ccc4c(oc(=O)n4C4CCC(=O)NC4=O)c3F)CC2)CC1 (centres undefined)  900 nM
6. CCc1cc(Nc2ncc(Br)c(Nc3cnc4ccccc4c3P(C)(C)=O)n2)c(OC)cc1N1CCC(N2CCN(CCc3ccc(F)c4c3n(C)c(=O)n4C3CCC(=O)NC3=O)CC2)CC1 (centres undefined)  1000 nM
7. CCOc1cc(N2CCC(N3CCN(CCc4cccc5c4n(C)c(=O)n5C4CCC(=O)NC4=O)CC3)CC2)c(CC)cc1Nc1ncc(Br)c(Nc2cnc3ccccc3c2P(C)(C)=O)n1 (centres undefined)  4400 nM

Tested on: Protein cereblon/Epidermal growth factor receptor (Homo sapiens), P00533+Q96SW2 [UNDEFINED MUTATION]
Test: Protac activity at E3 ubiquitin ligase/EGFR Del19/[…]/C797S mutant assessed as E3 ubiquitin ligase mediated EGFR degradation in human NCI-H1975 cells expressing Del19/[…]/C797S mutant in clone 28 after 16 hrs by HTRF assay relative to control
Format: cell-based

Protein cereblon/Epidermal growth factor receptor (Homo sapiens), P00533+Q96SW2 [UNDEFINED MUTATION], sequence (P00533 whole entry, looked up, stated change not applied): as the sequence (P00533 whole entry, looked up, stated change not applied) above
Protein cereblon/Epidermal growth factor receptor (Homo sapiens), P00533+Q96SW2 [UNDEFINED MUTATION], sequence (Q96SW2 whole entry, looked up, stated change not applied): as the sequence (Q96SW2 whole entry, looked up, stated change not applied) above

In order of rising Emax:
1. CCOc1cc(N2CCC(N3CCN(CCc4cc(F)c(F)c5c4oc(=O)n5C4CCC(=O)NC4=O)CC3)CC2)c(CC)cc1Nc1ncc(Br)c(Nc2cnc3ccccc3c2P(C)(C)=O)n1 (centres undefined)  81%
2. CCc1cc(Nc2ncc(Br)c(Nc3cnc4ccccc4c3P(C)(C)=O)n2)c(OC)cc1N1CCC(N2CCN(CCc3ccc4c(oc(=O)n4C4CCC(=O)NC4=O)c3F)CC2)CC1 (centres undefined)  81%
3. CCc1cc(Nc2ncc(Br)c(Nc3cnc4ccccc4c3P(C)(C)=O)n2)c(OC)cc1N1CCC(N2CCN(CCc3cccc4c3n(CC)c(=O)n4C3CCC(=O)NC3=O)CC2)CC1 (centres undefined)  83%
4. CCOc1cc(N2CCC(N3CCN(CCc4cccc5c4n(C)c(=O)n5C4CCC(=O)NC4=O)CC3)CC2)c(CC)cc1Nc1ncc(Br)c(Nc2cnc3ccccc3c2P(C)(C)=O)n1 (centres undefined)  84%
5. CCOc1cc(N2CCC(N3CCN(CCc4cccc5c4n(C)c(=O)n5C4CCC(=O)NC4=O)CC3)CC2)c(CC)cc1Nc1ncc(Br)c(Nc2cnc3cc(F)ccc3c2P(C)(C)=O)n1 (centres undefined)  84%
6. CCc1cc(Nc2ncc(Br)c(Nc3cnc4ccccc4c3P(C)(C)=O)n2)c(OC)cc1N1CCC(N2CCN(CCc3cccc4c3n(C3CC3)c(=O)n4C3CCC(=O)NC3=O)CC2)CC1 (centres undefined)  85%
7. CCc1cc(Nc2ncc(Br)c(Nc3cnc4ccccc4c3P(C)(C)=O)n2)c(OC)cc1N1CCC(N2CCN(CCc3ccc(F)c4c3n(C)c(=O)n4C3CCC(=O)NC3=O)CC2)CC1 (centres undefined)  86%
